In US20090176873A1, “NOVEL USE OF ORGANIC COMPOUNDS” (DSM IP ASSETS B.V., priority 2005, published 2009):
Read-outs that look alike come from different tables or passages of the source.

Assays:
[1] = test system: PGE2 production; assay: Inhibition of PGE2 formation in LPS-stimulated RAW 264.7 macrophages (EIA); assay type: cell-based, murine; conditions: Mus musculus, read-out: PGE2 Production by RAW Cells IC50
Description: (§1) The anti-inflammatory effects of the compounds were evaluated in activated macrophages by determining the inhibition of the synthesis of nitric oxide and/or PGE2. In order to induce an in vitro “inflammatory response”, murine macrophages RAW264.7 were stimulated with lipopolysaccharide (LPS) without or with graded amounts of the test substances. Murine macrophages RAW 264.7 cells respond to LPS-stimulation by the release of substantial amounts of Prostaglandin E2 (PGE2) and nitric oxide (NO), which is impaired by anti-inflammatory compounds. Prostaglandins PGE2 play a critical role in the inflammation process, while nitric oxide is a hallmark of inflammation in conditions like arthritis. Therefore, we evaluated the effect of the compounds on PGE2 and NO production.
RAW 264.7 cells: were cultured in Dulbecco's Modified eagle Medium (DMEM) supplemented with 10% fetal calf serum (FCS), 50 units/ml penicillin, 50 μg/ml streptomycin, L-glutamine and nonessential amino acids (NEM, Life Technologies, No. 11140). RAW cells were used between passage 10 and 50. For the experiments, cells were seeded into 6-well, 12-well or 96-well plates at 2, 1 and 0.05 mio cells per well, respectively, and used after 1 or 2 days of pre-culture. Cells were starved in complete DMEM medium containing 0.25% FCS 18 hours before the treatment. Cells were stimulated with LPS (1 μg/ml) for 24 hours in phenol-free DMEM containing 0.25% FCS. Substances to be tested were dissolved in DMSO (usually at 10 mM) and added to the culture medium concomitantly with the stimulus. […] After 24 hours nitrite concentrations were measured in culture supernatants by the Griess reaction and secreted PGE2 was determined by Enzyme immunoassay (EIA) in unstimulated and LPS-stimulated RAW264.7 cells. The compounds were simultaneously tested at different concentrations to obtain a dose response curve. […] The effects of compounds of the formula (I) on PGE2 production was also measured in the murine macrophage cell line RAW 264.7 (Table 1).

[2] = test system: nitric oxide (NO) production; assay: Inhibition of nitric oxide production in LPS-stimulated RAW264.7 macrophages (Griess reaction); assay type: cell-based, murine; conditions: Mus musculus; RAW264.7, LPS 1 μg/ml, 24 hours
Description: as §1
RAW 264.7 cells: were cultured in Dulbecco's Modified eagle Medium (DMEM) supplemented with 10% fetal calf serum (FCS), 50 units/ml penicillin, 50 μg/ml streptomycin, L-glutamine and nonessential amino acids (NEM, Life Technologies, No. 11140). […] After 24 hours nitrite concentrations were measured in culture supernatants by the Griess reaction and secreted PGE2 was determined by Enzyme immunoassay (EIA) in unstimulated and LPS-stimulated RAW264.7 cells. […] The effects of compounds of the formula (I) on PGE2 production was also measured in the murine macrophage cell line RAW 264.7 (Table 1).

[3] = test system: adhesion of U937 to human umbilical cord endothelial cells (HUVEC); assay: Adhesion of U937 monocytes to TNF-α stimulated HUVEC; assay type: cell-based; conditions: 20 hours stimulation
Description: (§2) Artherosclerotic lesions can develop as a consequence of endothelial dysfunction. This is reflected by altered i.e. increased adhesion of monocytes to endothelial layers. We evaluated the effect of ligustilide on adhesion of U937, a monocyte cell line, to human umbilical cord endothelial cells (HUVEC). HUVEC were stimulated with TNF-α in the absence or presence of ligustilide (25 or 50 μmol/L) for 20 hours and the adhesion of U937 was determined according to Carluccio et al. (Arterioscler Thromb Vasc Biol 2003; 23, 622-629). […] Adhesion of monocytes to endothelial layers is mediated by the expression of intercellular adhesion molecule 1 (ICAM-1). Therefore, we further analyzed the effects of ligustilide on the level of ICAM-1 mRNA in HUVEC by quantitative RT-PCR.

[4] = test system: intercellular adhesion molecule 1 (ICAM-1) mRNA; assay: ICAM-1 mRNA level in TNF-α stimulated HUVEC, quantitative RT-PCR; assay type: cell-based, human; conditions: 2 hours of stimulation
Description: as §2

[5] = test system: kaolin-induced arthritis; assay: Kaolin-induced arthritis in rats, gait score; assay type: in vivo; conditions: rat, 100 mg/kg oral; for Gait score: score from 0 to 3, mean of 10; for % improvement of gait score: vs control
Description: Twenty male Sprague Dawley rats weighing 103 g to 132 g, were included in this study. They were housed in a temperature (19.5-24.5° C.) and relative humidity (45-65%) controlled room with a 12-h light/dark cycle, with ad libitum access to filtered tap-water and standard pelleted laboratory chow, throughout the study. Upon receipt at animal facilities, they were housed 5 per cage and at least a 5-day acclimatization period were observed before any testing. Animals were individually identified on the tail. Arthritis is induced by injection of a 10% kaolin suspension into the knee joint of the rat right hindpaw. In the vehicle-treated group, injection of kaolin suspension into the knee joint of the rat right hindpaw induced an impairment of the gait, evaluated by an increase of the gait score (score from 0 to 3). Gait of animals is used to measure the spontaneous painful behavior. Ligustilide (100 mg/kg) suspended in 1% methylcellulose (in a volume of 10 ml/kg) or vehicle alone were administered by oral route in a coded and random order, 30 min after kaolin injection. The assessment of score behavior was monitored every hour from 1.5 hours to 5.5 hours following drug dosing. The mean gait score was calculated from individual values at each time. The percentage of inhibition of the mean gait score as compared to the mean value of the control group was calculated 1.5, 2.5, 3.5, 4.5 hours and 5.5 hours after dosing.
The results are expressed for each group as the mean of the gait scores of 10 animals per group.

[6] = test system: Collagen 1; assay: Gene expression in IL-1β activated chondrocytes, RT-PCR; assay type: cell-based; conditions: 4 hours, SW1353 or normal human chondrocytes, concentration not given
Description: (§3) Articulate tissues i.e. joints contain chondrocytes. Their physiological deterioration leads to the erosion of joint tissue components and thus to e.g. osteoarthritis. We have evaluated the effect of ligustilide on catabolic events in chondrocytes. SW1353 chondrosarcoma cells or normal human chondrocytes (derived from knee) were activated with interleukin-1β in the presence of graded amount of test compounds for 4 hours. RNA was then extracted from these cells and reverse-transcribed. Expression of marker genes for catabolic events like matrix metalloproteinases (MMPs) was determined by quantitative real time polymerase chain reaction (RT-PCR). As shown in Table 5 ligustilide influenced the expression level of several MMPs, which are critically involved in the destruction of extracellular matrix. Ligustilide reduced its expression and thus is supposed to prevent tissue erosion in osteoarthritic diseases.

[7] = test system: MMP-13; assay: as above; assay type: cell-based; conditions: 4 hours, SW1353 or normal human chondrocytes, concentration not given
Description: as §3

[8] = test system: MMP-3; assay: as above; assay type: cell-based; conditions: 4 hours, SW1353 or normal human chondrocytes, concentration not given
Description: as §3

[9] = test system: MMP-9; assay: as above; assay type: cell-based; conditions: 4 hours, SW1353 or normal human chondrocytes, concentration not given
Description: as §3

[10] = test system: MMP-1; assay: as above; assay type: cell-based; conditions: 4 hours, SW1353 or normal human chondrocytes, concentration not given
Description: as §3

[11] = test system: Collagen 2; assay: as above; assay type: cell-based; conditions: 4 hours, SW1353 or normal human chondrocytes, concentration not given
Description: as §3

[12] = test system: IL-8; assay: Gene expression in LPS-stimulated THP-1 cells, quantitative RT-PCR; assay type: cell-based, human; conditions: THP-1, ligustilide 25 μM, LPS 1 μg/ml, 4 hours
Description: (§4) THP-1 cells, a human monocyte/histiocyte cell line, were cultured in RPMI 1640 medium supplemented with 10% FCS, 50 units/ml penicillin, […] streptomycin, NEM and 2×10^−5 M β-mercaptoethanol. Cells were treated with 50 nM phorbol myristate acetate for 3 days. Cells were starved overnight in medium containing 0.25% FCS before being treated. Cells were stimulated with LPS (1 μg/ml) for 4 hours in phenol-free RPMI containing 0.25% FCS. Ligustilide (25 μM) was added to the culture medium concomitantly with the stimulus. […] LPS-stimulation induces the expression of a large variety of genes including those of inflammatory pathways. After 4 hours of stimulation we have evaluated the impact of ligustilide on the expression of inflammatory genes using quantitative real-time RT-PCR (reverse transcriptase polymerase chain reaction) technology (Table 2).

[13] = test system: IL-1α; assay: as above; assay type: cell-based, human; conditions: THP-1, ligustilide 25 μM, LPS 1 μg/ml, 4 hours
Description: as §4

[14] = test system: IL-6; assay: as above; assay type: cell-based, human; conditions: THP-1, ligustilide 25 μM, LPS 1 μg/ml, 4 hours
Description: as §4

[15] = test system: MIP-2; assay: as above; assay type: cell-based, human; conditions: THP-1, ligustilide 25 μM, LPS 1 μg/ml, 4 hours
Description: as §4

[16] = test system: COX-2; assay: as above; assay type: cell-based, human; conditions: THP-1, ligustilide 25 μM, LPS 1 μg/ml, 4 hours
Description: as §4

[17] = test system: TNF-α; assay: as above; assay type: cell-based, human; conditions: THP-1, ligustilide 25 μM, LPS 1 μg/ml, 4 hours
Description: as §4

[18] = test system: MIP-3α; assay: as above; assay type: cell-based, human; conditions: THP-1, ligustilide 25 μM, LPS 1 μg/ml, 4 hours
Description: as §4

[19] = test system: carrageenan-induced paw edema; assay: Carrageenan-induced paw edema in rats; assay type: in vivo; conditions: rat, 100 mg/kg oral; for Paw edema volume: mean of 10
Description: The anti-inflammatory activity of the compounds was evaluated in vivo in the carrageenan-induced paw edema rat model. This model has long been used to assess the anti-inflammatory properties of agents that inhibit prostaglandins, such as nonsteroidal anti-inflammatory drugs (NSAIDs) The model causes time-dependent edema formation following carrageenan administration into the sub-plantar surface of a rat paw. Twenty male Sprague-Dawley rats weighing 130 to 146 g were randomized in two groups. They were housed in a temperature (19.5-24.5° C.) and relative humidity (45-65%) controlled room with a 12-h light/dark cycle, with ad libitum access to filtered tap-water and standard pelleted laboratory chow throughout the study. They were housed 5 per cage and a 5-6-day acclimatization period was observed before any testing. Animals were individually identified on the tail. Ligustilide (100 mg/kg) suspended in 1% methylcellulose (in a volume of 10 mL/kg) or vehicle alone were administered by the oral route in a coded and random order after an overnight fast. One hour later, inflammation is induced by subplantar injection of a 2% carrageenan suspension into the right paw. The paw volume of each rat was measured in mL at the following time points: 0 h, 1.5 h, 3 h, and 4.5 h after the injection of carrageenan. The paw edema volume of each rat at each time point was expressed as the change from initial value. The anti-inflammatory effect on edema volume in treated-groups was expressed as % inhibition [(mean of vehicle-treated group paw edema volume−mean of the treated group paw edema volume)/mean of vehicle-treated group paw edema volume)×100]. All data of paw edema volume are expressed in mL as Mean of 10 rats in each group.

[20] = RAW264.7, RAW 264.7, LPS 1 μg/ml, 24 hours

CCC/C=C1\OC(=O)c2ccccc21 [N-Butylidenephthalide, E + Z-3-Butylidenephthalide]
IC50 ([1]; RAW264.7, 24 h): 3 µM

CCC/C=C1\OC(=O)C2=C1CCC=C2 [Ligustilide]
IC50 [2]: 12.2 ± 3.1 µM
% reduction of adherence ([3]; TNF-α + 25 μM ligustilide): 39%
Number of adherent cells ([3]; TNF-α + 25 μM ligustilide): 61 ± 25
% reduction of adherence ([3]; TNF-α + 50 μM ligustilide): 73%
Number of adherent cells ([3]; TNF-α + 50 μM ligustilide): 27 ± 21
% reduction of expression (ICAM-1 mRNA) ([4]; TNF-α + 25 μM ligustilide): 58%
Relative ICAM-1 mRNA level ([4]; TNF-α + 25 μM ligustilide): 25 ± 6 arbitrary units
% reduction of expression (ICAM-1 mRNA) ([4]; TNF-α + 50 μM ligustilide): 73%
Relative ICAM-1 mRNA level ([4]; TNF-α + 50 μM ligustilide): 16 ± 1 arbitrary units
Gait score ([5]; 1.5 hours after dosing): 0.3
% improvement of gait score ([5]; 1.5 hours after dosing): 25%
Gait score ([5]; 2.5 hours after dosing): 0.4
% improvement of gait score ([5]; 2.5 hours after dosing): 43%
Gait score ([5]; 3.5 hours after dosing): 0.6
% improvement of gait score ([5]; 3.5 hours after dosing): 50%
Gait score ([5]; 4.5 hours after dosing): 0.9
% improvement of gait score ([5]; 4.5 hours after dosing): 53%
Gait score ([5]; 5.5 hours after dosing): 1.3
% improvement of gait score ([5]; 5.5 hours after dosing): 38%
Analgesic effect in comparison to the control group ([5]; at 3.5, 4.5 and 5.5 hours after dosing): significant analgesic effect
Gene expression (in %) relative to IL-1β activated chondrocytes, Collagen 1 [6]: 115%
Gene expression (in %) relative to IL-1β activated chondrocytes, MMP-13 [7]: 50%
Gene expression (in %) relative to IL-1β activated chondrocytes, MMP-3 [8]: 2%
Gene expression (in %) relative to IL-1β activated chondrocytes, MMP-9 [9]: 33%
Gene expression (in %) relative to IL-1β activated chondrocytes, MMP-1 [10]: 17%
Gene expression (in %) relative to IL-1β activated chondrocytes, Collagen 2 [11]: 184%
Gene expression (in %) relative to LPS control, IL-8 [12]: 72.4%
Gene expression (in %) relative to LPS control, IL-1α [13]: 15.2%
Gene expression (in %) relative to LPS control, IL-6 [14]: 52.3%
Gene expression (in %) relative to LPS control, MIP-2 [15]: 52.0%
Gene expression (in %) relative to LPS control, COX-2 [16]: 24.1%
Gene expression (in %) relative to LPS control, TNF-α [17]: 50.6%
Gene expression (in %) relative to LPS control, MIP-3α [18]: 67.2%
% Inhibition of paw edema volume vs vehicle-treated group ([19]; 1.5 h after carrageenan): 29%
Paw edema volume ([19]; 1.5 h after carrageenan): 0.17 mL
% Inhibition of paw edema volume vs vehicle-treated group ([19]; 3 h after carrageenan): 27%
Paw edema volume ([19]; 3 h after carrageenan): 0.32 mL
% Inhibition of paw edema volume vs vehicle-treated group ([19]; 4.5 h after carrageenan): 11%
Paw edema volume ([19]; 4.5 h after carrageenan): 0.40 mL
IC50 [1, 20]: 3.2 µM

CCCC[C@@H]1OC(=O)c2ccccc21 [3-Butylphthalide, 3S-Butylphthalide]
IC50 [1, 20]: 3 µM
